Measurements from patent publication US20180353445A1, “METHODS AND COMPOSITIONS RELATING TO PROTEASOME INHIBITOR RESISTANCE” (Whitehead Institute for Biomedical Research, priority 2017, published 2018).

Key:
T47D cells = assay: Combination of ABT-263 or ABT-199 with proteasome inhibitors, T47D cells with reduced PSMD2; assay type: cell-based, human; conditions: T47D cells with reduced PSMD2, 72 hours
Excerpt: FIG. 18: Plots showing effect of various concentrations of ABT-263 (upper panels) or ABT-199 (lower panels) in combination with various concentrations of ixazomib un viability of T47D cells with reduced expression of PSMD2 (KB) (right panels) or control cells (left panels). Fold viability refers to the number of viable cells of the indicated type (PSMD2 KD or control cells) after culture in the presence of the test compounds (ixazomib +ABT-263 or ixazomib +ABT-199) divided by the number of viable cells of that type after culture in the absence of the test compounds. The concentrations of ABT-263 or ABT-199 tested are shown in the legend on the right side of each panel. If no concentration is listed, the compound was absent. Fold viability of control cells cultured in the presence of ixazomib alone (i.e., in the absence ABT-263 or ABT-199) is also shown in the panels showing effect of ixazomib +ABT-263 or ixazomib +ABT-199 on PSMD2 KD cells. […]
FIGS. 21A-21C: (FIG. 21A) Plot showing synergy of ABT-263 with ixazomib in T47D cells with reduced expression of PSMD2. […] The y-axis on each plot is the calculated EC50 in micromoles for either ixazomib or bortezomib in the presence of sublethal doses of ABT-263 or A.BT-199 as indicated. Compounds were added to the cells at the same time and cell viability was measured 72 hours later.

IMR32 and Kelly cells = assay: Viability of IMR32 vs Kelly neuroblastoma cells; assay type: cell-based, human
Experimental: FIGS. 24A-24C: (FIG. 24A) Plot showing the effect of various concentrations of ABT-263 on IMR32 and Kelly cells. (FIG. 24B) Plot showing effect of various concentrations of disulfiram on IMR32 and Kelly cells. (FIG. 24C) Plot showing effect of various concentrations of elesclomol on IMR32 and Kelly cells. Fold viability refers to the number of viable cells of the indicated type after culture in the presence of the indicated test compound for 72 hours divided by the number of viable cells of that type after culture in the absence of the test compound.
FIG. 28: The relative viability was examined in IMR32 cells and Kelly cells after addition of indicated concentrations of the different BCL2 family inhibitors. ABT-263 (BCL2, BCLXL, MCL1) (upper left panel), ABT-199 (BCL2) (upper right panel), WEHI-539 (BCLXL) (lower left panel), A-1210477 (MCL1) (lower right panel). The relative effect on cell growth was analyzed 72 hours after addition of drugs.

[1] = tested on: MCF7, HEK293 and T47D cells; assay: Viability of cells grown in glucose (glycolytic) vs galactose (Hi-OXPHOS); assay type: cell-based, human
Experimental: FIGS. 40A-40D: Cancer cell metabolism alters sensitivity to elesclomol.
FIGS. 41A-41B: Cancer cell metabolism alters sensitivity to elesclomol.
FIGS. 51A-51D: Elesclomol preferentially targets cells in the Hi-OXPHOS state. […] The relative cell growth (color coded) was analyzed 72 hours post compound addition. Plotted are the mean SD of at least three replicas and the calculated EC50s (FIGS. 51B-51C). […] Reactive groups are indicated with a colored circle.
FIGS. 57A-57C: Elesclomol preferentially targets cells in the Hi-OXPHOS state. […] Analogs named compound 1-6. […] Plotted are the mean SD of at least three replicas and the calculated EC50s (FIG. 57A and FIG. 57C).

FDX1 = target: T1, FDX1 (Homo sapiens, UniProt P10109); assay: Electron transfer from reduced FDX1 to the cysteine desulfurase complex; assay type: biochemical; conditions: upon addition of cysteine
T1 construct: made in house
T1 sequence (P10109 62-184): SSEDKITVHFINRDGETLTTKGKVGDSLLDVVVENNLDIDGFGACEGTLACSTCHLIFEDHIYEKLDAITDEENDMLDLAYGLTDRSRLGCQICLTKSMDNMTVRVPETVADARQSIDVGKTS

cysteine desulfurase = target: T2, cysteine desulfurase (Homo sapiens, UniProt Q9Y697); assay: Cysteine desulfurase activity assay; assay type: biochemical
T2 construct: made in house
T2 sequence (Q9Y697 56-457): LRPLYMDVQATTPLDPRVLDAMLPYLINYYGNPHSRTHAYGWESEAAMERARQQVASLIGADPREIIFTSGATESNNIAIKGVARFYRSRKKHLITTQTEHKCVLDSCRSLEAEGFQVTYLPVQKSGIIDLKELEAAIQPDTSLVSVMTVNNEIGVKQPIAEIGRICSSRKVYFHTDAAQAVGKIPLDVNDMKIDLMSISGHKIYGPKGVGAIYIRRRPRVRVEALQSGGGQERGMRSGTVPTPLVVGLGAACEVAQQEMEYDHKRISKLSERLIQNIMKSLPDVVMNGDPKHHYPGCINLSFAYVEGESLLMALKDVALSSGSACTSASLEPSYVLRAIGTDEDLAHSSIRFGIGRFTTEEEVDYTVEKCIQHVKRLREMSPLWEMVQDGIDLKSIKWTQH
T2 sequence (Q9HD34 whole entry, further chain): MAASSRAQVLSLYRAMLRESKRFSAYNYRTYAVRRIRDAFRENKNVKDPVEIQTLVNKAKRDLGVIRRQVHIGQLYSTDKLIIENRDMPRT
T2 sequence (P0A6A8 2-78, further chain): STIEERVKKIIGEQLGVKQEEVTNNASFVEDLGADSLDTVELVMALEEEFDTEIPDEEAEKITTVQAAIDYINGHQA
Experimental: The in vitro Fe—S cluster assembly was carried out with reduced FDX1 as the reducing agent and detected by following the increase of absorbance at 456 tun following the addition of either of 5× (green) or 10× (yellow, both relative to FDX1) compound-1. […] Fe—S formation was monitored by following the increase of absorbance at 456 nm. […] Cysteine desulfurase activity assay carried out with the indicated concentrations of elesclomol.

SMILES: CC1(C)CCC(c2ccc(Cl)cc2)=C(CN2CCN(c3ccc(C(=O)NS(=O)(=O)c4ccc(N[C@H](CCN5CCOCC5)CSc5ccccc5)c(S(=O)(=O)C(F)(F)F)c4)cc3)CC2)C1 [ABT-263, navitoclax]
- combination effect with bortezomib (T47D cells): synergy
- combination effect with ixazomib (T47D cells): synergy

SMILES: CC(C)C[C@H](NC(=O)[C@H](Cc1ccccc1)NC(=O)c1cnccn1)B(O)O [bortezomib]
- resistance of IMR32 cells compared to Kelly cells (IMR32 and Kelly cells): increased resistance

SMILES: CN(NC(=O)CC(=O)NN(C)C(=S)c1ccccc1)C(=S)c1ccccc1 [elesclomol]
- activity against cells in the HI-OXPHOS state [1]: preferential activity
- toxicity when grown in the presence of Galactose [1]: toxicity is enhanced
- sensitivity of cells utilizing mitochondria metabolism vs glycolytic cells ([1]; MCF7 and HEK293 cells): much more sensitive
- electron transfer from reduced FDX1 to the cysteine desulfurase complex (FDX1): inhibits electron transfer
- activity of cysteine desulfurase (cysteine desulfurase): does not inhibit
